According to patent publication US6815440B2, “Cyclic and heterocyclic N-substituted α-iminohydroxamic and -carboxylic acids” (Aventis Pharma Deutschland GmbH, priority 1995, dated 2004):
Read-outs that look alike come from different tables or passages of the source.

Experiments:
[1] = biological target: T1, catalytic domain of human stromelysine (Homo sapiens, UniProt P08254); assay: Enzyme inhibition, catalytic domain of human stromelysine (fluorogenic substrate); assay type: biochemical; conditions: read-out: Stromelysine IC 50
T1 construct: enzymatic activity of the catalytic domains of human stomelysine and of neutrophil collagenase; made in house
Protocol: (§1) Preparation and determination of the enzymatic activity of the catalytic domains of human stomelysine and of neutrophil collagenase.
(§2) The two enzymes were prepared according to Ye et al., (Biochemistry 31 (1992) 11231-5). To measure the enzyme activity or enzyme inhibitor action, 70 μl of buffer solution and 10 μl of enzyme solution are incubated for 15 minutes with 10 μl of a 10% strength (v/v) aqueous dimethyl sulfoxide solution, which optionally contains the enzyme inhibitor. After addition of 10 μl of a 10% strength (v/v) aqueous dimethyl sulfoxide solution which contains 1 mmol/l of the substrate, the enzyme reaction is monitored by fluorescence spectroscopy (328 nm (ex)/393 nm(em)). The enzyme activity is shown as extinction increase/minute. […] The buffer solution contains 0.05% of Brij (Sigma, Deisenhofen, Germany) and also 0.1 mol/l of tris/HCl, 0.1 mol/l of NaCl, 0.01 mol/l of CaCl2 (pH=7.5) for the determination of the hydroxamic acids up to and including Example 33, or, for the determination of the carboxylic acids from Example 34, 0.1 mol/l of piperazine-N,N′-bis[2-ethanesulfonic acid] pH=6.5.
(§3) The enzyme solution contains 5 μg/ml of one of the enzyme domains prepared according to Ye et al. The substrate solution contains 1 mmol/l of the fluorogenic substrate (7-methoxycoumarin-4-yl)acetyl-Pro-Leu-Gly-Leu-3-(2′,4′-dinitrophenyl)-L-2,3-diaminopropionyl-Ala-Arg-NH2 (Bachem, Heidelberg, Germany).

[2] = biological target: T2, catalytic domain of neutrophil collagenase (Homo sapiens, UniProt P22894); assay: Enzyme inhibition, catalytic domain of neutrophil collagenase (fluorogenic substrate); assay type: biochemical; conditions: read-out: Neutrophil collagenase IC 50
T2 construct: enzymatic activity of the catalytic domains of human stomelysine and of neutrophil collagenase; made in house
Protocol: as §1, §2, §3

[3] = carboxylic acids from Example 34, piperazine-N,N'-bis[2-ethanesulfonic acid] buffer pH=6.5
[4] = hydroxamic acids up to and including Example 33, tris/HCl buffer pH=7.5

T1 sequence (P08254 100-272 limits assumed): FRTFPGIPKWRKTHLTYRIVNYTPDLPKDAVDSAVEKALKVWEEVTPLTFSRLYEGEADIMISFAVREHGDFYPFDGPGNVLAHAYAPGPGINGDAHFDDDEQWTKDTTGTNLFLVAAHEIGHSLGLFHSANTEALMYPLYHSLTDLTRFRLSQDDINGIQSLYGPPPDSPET
T2 sequence (P22894 100-262 limits assumed): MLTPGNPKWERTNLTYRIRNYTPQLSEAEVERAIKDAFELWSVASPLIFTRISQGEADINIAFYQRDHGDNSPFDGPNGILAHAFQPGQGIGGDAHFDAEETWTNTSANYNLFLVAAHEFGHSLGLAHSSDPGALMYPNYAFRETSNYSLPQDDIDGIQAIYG

IC50 [1, 3] [nM]	IC50 [2, 3] [nM]	melting point	IC50 [1, 4] [nM]	IC50 [2, 4] [nM]	Structure (SMILES)
200	9	147 °C	–	–	O=C(O)[C@H]1Cc2ccccc2CN1S(=O)(=O)c1ccc(Oc2ccccc2)cc1 [41 (13b), R-2-(4-phenoxybenzenesulfonyl)-1,2,3,4-tetrahydroisoquinoline-3-carboxylic acid]
–	–	–	300	–	O=C(NO)C1Cc2ccccc2CN1S(=O)(=O)c1ccccc1 (centres unmarked) [Example 1]
–	–	–	30	2	O=C(NO)[C@H]1Cc2ccccc2CN1S(=O)(=O)c1ccc(-c2ccc(Cl)cc2)cc1 [Example 3]
–	–	–	700	100	CC(=O)Nc1ccc(S(=O)(=O)N2Cc3ccccc3CC2C(=O)NO)cc1 (centres unmarked) [Example 4]
–	–	–	6000	–	CCOC(=O)Nc1cccc(S(=O)(=O)N2Cc3ccccc3CC2C(=O)NO)c1 (centres unmarked) [Example 5]
–	–	–	500	30	CCOC(=O)Nc1ccc(S(=O)(=O)N2Cc3ccccc3CC2C(=O)NO)cc1 (centres unmarked) [Example 6]
–	–	–	3000	200	COc1ccc(CC(=O)Nc2cccc(S(=O)(=O)N3Cc4ccccc4CC3C(=O)NO)c2)cc1 (centres unmarked) [Example 8]
–	–	–	400	70	O=C(NO)[C@H]1Cc2ccccc2CN1S(=O)(=O)C1=CC2=CC=CCC2C=C1 (some centres unmarked) [Example 11]
–	–	–	400	200	CN(C)c1cccc2c(S(=O)(=O)N3Cc4ccccc4C[C@@H]3C(=O)NO)cccc12 [Example 12]
–	–	–	100	10	O=C(NO)[C@H]1Cc2ccccc2CN1S(=O)(=O)c1ccc2oc3ccccc3c2c1 [Example 15]
–	–	–	100	–	O=C(NO)C1Cc2ccccc2CN1S(=O)(=O)CCc1ccccc1 (centres unmarked) [Example 17]
–	–	–	2000	300	O=C(NO)C1Cc2ccccc2CN1S(=O)(=O)c1ccc(C(O)c2ccccc2)cc1 (centres unmarked) [Example 19]
–	–	–	30	8	COc1ccc(S(=O)(=O)Oc2ccc3c(c2)CN(S(=O)(=O)c2ccc(OC)cc2)[C@@H](C(=O)NO)C3)cc1 [Example 22]
–	–	–	80	8	COc1ccc(S(=O)(=O)N2Cc3cc([N+](=O)[O-])ccc3CC2C(=O)NO)cc1 (centres unmarked) [Example 23]
–	–	166 °C	60	20	COc1ccc(S(=O)(=O)N2Cc3cc4c(cc3CC2C(=O)NO)OCO4)cc1 (centres unmarked) [Example 24, 2-(4-Methoxybenzenesulfonyl)-6,7-methylenedioxy-1,2,3,4-tetrahydroisoquinoline-3-hydroxamic acid]
–	–	–	400	300	COc1ccc(S(=O)(=O)N2Cc3c(cc(OC)c(OC)c3OC)CC2C(=O)NO)cc1 (centres unmarked) [Example 25, 2-(4-Methoxybenzenesulfonyl)-6,7,8-trimethoxy-1,2,3,4-tetrahydroisoquinoline-3-hydroxamic acid]
–	–	–	6000	300	O=C(NO)C1Cc2ccccc2CN1S(=O)(=O)N1CCOCC1 (centres unmarked) [Example 26, 2-(Morpholinosulfonyl)-1,2,3,4-tetrahydroisoquinoline-3-hydroxamic acid]

IC50 [1, 3] [nM]	IC50 [2, 3] [nM]	melting point	IC50 [1, 4] [nM]	IC50 [2, 4] [nM]	Structure (SMILES)
–	–	–	30	4	COc1ccc(S(=O)(=O)N2CCc3cc4c(cc3C2C(=O)NO)CCC4)cc1 (centres unmarked) [Example 27]
–	–	142 °C	2000	700	COc1ccc(S(=O)(=O)N2c3ccccc3CC2C(=O)NO)cc1 (centres unmarked) [Example 28, 1-(4-Methoxybenzenesulfonyl)indoline-2-hydroxamic acid]
–	–	–	20	3	COc1ccc(S(=O)(=O)N2Cc3[nH]c4ccccc4c3C[C@@H]2C(=O)NO)cc1 [Example 31, R-2-(4-methoxybenzenesulfonyl)-1,2,3,4-tetrahydro-9H-pyrido-(3,4-b)-indole-3-hydroxamic acid]
–	–	110 to 111 °C	60	–	O=C(NO)[C@H]1Cc2c([nH]c3ccccc23)CN1S(=O)(=O)c1ccc(Oc2ccccc2)cc1 [Example 32, R-2-(4-phenoxybenzenesulfonyl)-1,2,3,4-tetrahydro-9H-pyrido(3,4-b)-indole-3-hydroxamic acid]
–	–	125 °C (dec.)	300	70	O=C(NO)[C@H]1Cc2c([nH]c3ccccc23)CN1S(=O)(=O)c1ccc(N2CCOCC2)cc1 [Example 33, R-2-(4-morpholinobenzenesulfonyl)-1,2,3,4-tetrahydro-9H-pyrido(3,4-b)-indole-3-hydroxamic acid]
500	10	205 °C	–	–	O=C(O)[C@H]1Cc2ccccc2CN1S(=O)(=O)c1ccc(-c2ccccc2)cc1 [Example 34]
100	5	207 to 209 °C	–	–	O=C(O)[C@H]1Cc2ccccc2CN1S(=O)(=O)c1ccc(-c2ccc(Cl)cc2)cc1 [Example 35]
–	3000	–	–	–	O=C(O)[C@@H]1Cc2ccccc2CN1S(=O)(=O)c1ccc(-c2ccc(Cl)cc2)cc1 [Example 36]
100	1	122 to 135 °C	–	–	CN(C)c1ccc(-c2ccc(S(=O)(=O)N3Cc4ccccc4C[C@@H]3C(=O)O)cc2)cc1.Cl [Example 39]
500	20	167 to 168 °C	–	–	O=C(O)[C@H]1Cc2ccccc2CN1S(=O)(=O)c1ccc(Oc2ccc(Cl)cc2)cc1 [Example 42, R-2-[4-(4-chlorophenoxy)benzenesulfonyl]-1,2,3,4-tetrahydroisoquinoline-3-carboxylic acid]
20000	200	–	–	–	O=C(O)[C@H]1Cc2ccccc2CN1S(=O)(=O)c1ccc(Sc2ccccc2)cc1 [Example 43]
200	30	–	–	–	O=C(O)[C@H]1Cc2ccccc2CN1S(=O)(=O)c1ccc(OCc2ccc(F)cc2)cc1 [Example 44]
3000	300	–	–	–	O=C(c1ccccc1)c1ccc(S(=O)(=O)N2Cc3ccccc3C[C@@H]2C(=O)O)cc1 [Example 45]
3000	300	218 to 219 °C	–	–	O=C(O)[C@H]1Cc2ccccc2CN1S(=O)(=O)c1ccc2oc3ccccc3c2c1 [Example 46]
–	–	211 to 213 °C	–	–	O=C(O)[C@H]1Cc2ccccc2CN1S(=O)(=O)c1ccc(-c2nc3ccccc3o2)cc1 [Example 47]
–	–	226 to 228 °C	–	–	O=C(O)[C@H]1Cc2cc3c(cc2CN1S(=O)(=O)c1ccc(Oc2ccccc2)cc1)OCO3 [Example 54]
2000	100	115 °C	–	–	O=C(O)[C@H]1Cc2c([nH]c3ccccc23)CN1S(=O)(=O)c1ccc(Oc2ccccc2)cc1 [Example 57]

Structure (SMILES)	IC50 [1, 3] [nM]	IC50 [2, 3] [nM]	melting point	IC50 [1, 4] [nM]	IC50 [2, 4] [nM]
O=C(O)[C@H]1Cc2ccc([N+](=O)[O-])cc2CN1S(=O)(=O)c1ccc(-c2ccc(Cl)cc2)cc1 [Example 50]	600	30	–	–	–
O=C(O)[C@H]1Cc2cc([N+](=O)[O-])ccc2CN1S(=O)(=O)c1ccc(-c2ccc(Cl)cc2)cc1 [Example 51]	500	20	–	–	–
O=C(O)[C@H]1Cc2ccc([N+](=O)[O-])cc2CN1S(=O)(=O)c1ccc(-c2ccc(F)cc2)cc1 [Example 52]	1000	40	–	–	–
O=C(O)[C@H]1Cc2cc([N+](=O)[O-])ccc2CN1S(=O)(=O)c1ccc(-c2ccc(F)cc2)cc1 [Example 53]	500	20	–	–	–
